Data taken from BigSolDB 2.1.

N#Cc1c(Cl)c(Cl)c(Cl)c(C#N)c1Cl
solubility (mole fraction)
Details | in 1,4-dioxane | in DMAc | in DMF | in MIBK | in THF | in acetone | in acetonitrile | in cyclohexanone | in ethyl acetate | in n-propyl acetate
288.15 K | 0.0082 | 0.017 | 0.00992 | 0.00381 | 0.00909 | 0.00369 | 0.00134 | 0.0079 | 0.00311 | 0.0033
293.15 K | 0.00951 | 0.0191 | 0.0111 | 0.00447 | 0.0102 | 0.00443 | 0.00161 | 0.00905 | 0.00374 | 0.00384
298.15 K | 0.0109 | 0.0211 | 0.0128 | 0.00509 | 0.012 | 0.00512 | 0.00193 | 0.0106 | 0.00435 | 0.00444
303.15 K | 0.0118 | 0.0239 | 0.0142 | 0.00603 | 0.0137 | 0.00566 | 0.00228 | 0.0123 | 0.00496 | 0.00523
308.15 K | 0.0136 | 0.0264 | 0.0155 | 0.00668 | 0.0155 | 0.00682 | 0.00272 | 0.0135 | 0.00543 | 0.00566
313.15 K | 0.015 | 0.03 | 0.0177 | 0.00802 | 0.0172 | 0.00779 | 0.00308 | 0.0154 | 0.00643 | 0.0067
318.15 K | 0.0177 | 0.0334 | 0.0197 | 0.0102 | 0.0208 | 0.00932 | 0.00413 | 0.019 | 0.00744 | 0.0079
323.15 K | 0.0215 | 0.0359 | 0.0233 | 0.0115 | 0.023 | 0.0113 | 0.00462 | 0.0222 | 0.00893 | 0.00904
